Several values for one entry are separate records, joined by “and”; a condition that tells them apart may be missing. Identical values can stand only once.
Assay: Pesticide sorption from water by K- and Ca-SWy-2 smectite clay, batch equilibration method
Format: physicochemical
Conditions: for change in sorption by sorbents derived from Ca-SWy-2 as fK increased from zero to 0.71: Ca-SWy-2 exchanged with KCl; for sorption by K-SWy-2 relative to sorption by Ca-SWy-2: relative aqueous concentration of 0.1; for pesticide distribution coefficient for sorption by homoionic K-SWy-2: relative concentration of 0.1 (aqueous equilibrium concentration/aqueous solubility), 0.25 M KCl solution
Protocol: Pesticide sorption from water solution by K— and Ca—SWy-2 mixed with different ratios of aqueous KCl to CaCl2 (kept at a fixed ionic strength of 0.25 M) were measured using a batch equilibration method. A series of initial pesticide concentrations were prepared in the following electrolyte solutions: 0.25 M KCl, 0.24 M KCl/0.003 M CaCl2; 0.20 M KCl/0.016 M CaCl2; 0.15 M KCl/0.033 M CaCl2; 0.10 M KCl/0.05 M CaCl2; 0.05 M KCl/0.067 M CaCl2; 0.01 M KCl/0.08 M CaCl2; and 0.083 M CaCl2. Clays were weighed into glass centrifuge tubes, solute solutions over a range of initial pesticide concentrations were added, and the tubes were closed with Teflon-lined screw caps. The tubes were then shaken reciprocally at 40 rpm for 24 h at room temperature (23±2° C.), followed by centrifugation at 2600 g for 30 min. Previous studies have shown that equilibrium was reached within this period of time (Sheng, G., et al., J. Agri. Food Chem. 49, 2899-2907 (2001); and Sheng, G., et al., Clays Clay Miner. 50, 25-34 (2002)). Supernatants were sampled and subject to analysis for pesticide concentrations using a Perkin-Elmer High Performance Liquid Chromatography (HPLC) system consisting of a Binary 250 LC pump, a Series 200 autosampler and a Series 200 UV-Visible detector. The optimal wavelength was set at 238 nm for dichlobenil, 250 nm for monuron and 248 nm for biphenyl. An Alltech platinum extended polar selectivity C18 column (15 cm by 4.6 mm i.d.) was used for dichlobenil and monuron, and an Alltech adsobosphere C18 column (25 cm by 4.6 mm i.d.) was used for biphenyl. The mobile phase composition was a mixture of methanol and water, and was optimized for each pesticide. Controls consisted of identical pesticide solutions in the corresponding electrolytes, but with no clay present. No changes in solute concentrations were detected in the tubes devoid of clay within the experimental period; therefore, solute mass lost in the supernatant from clay slurries was assumed to be sorbed by clay. The amount of pesticide sorbed was calculated from the difference between the initial and equilibrium solute concentration in aqueous solution.
The actual population of exchangeable K^+ and Ca^2+ associated with the clay was measured in a separate experiment using the BaCl2 extraction method (Rhoades, J. D., Method of Soil Analysis part 2: Chemical and Microbiological Properties; 2nd ed., American Society of Agronomy: Madison, Wis. 149-158 (1982)). The same amounts of clays and electrolyte solutions used in the sorption studies were added into glass centrifuge tubes, the tubes were shaken for 24 h at room temperature then centrifuged at 2600 g for 30 min. Aqueous supernatants were removed, diluted and analyzed by a Perkin-Elmer 3110 atomic absorption spectrophotometer (AAS). The mass of K^+ and Ca^2+ remaining in the residual supernatant was accounted for by assuming their concentrations to be the same as that measured in the bulk supernatant; residual supernatant that could not be removed was determined gravimetrically. The clay pellets were extracted three times using 0.1 M BaCl2, then washed three times with Milli-Q water. The supernatants from the water washing were combined with the supernatants from the BaCl2 extraction step, diluted and analyzed by AAS. The K^+ and Ca^2+ concentrations were measured using the external standards prepared with the matching matrix background of extraction reagents.
We compared sorption coefficients for clays derived from homoionic Ca—SWy-2 vs. those derived from homoionic K—SWy-2 after the homoionic clays had been treated with different amounts of CaCl2/KCl aqueous solutions. […] Replacement of K^+ from K—SWy-2 by Ca^2+ (from fK=1 to 0.66) manifested gradually diminishing sorption of dichlobenil to ˜40% of that by homoionic K—SWy-2.

[1] = relative aqueous concentration 0.1

SMILES | change in sorption by sorbents derived from Ca-SWy-2 as fK increased from zero to 0.71 [1] | sorption relative to that by homoionic K-SWy-2 after replacement of K+ by Ca2+ (K-SWy-2 derived clay, fK from 1 to 0.66, relative concentration 0.1) [%] | sorption by clay derived from K-SWy-2 (fK=0.66) relative to clay derived from Ca-SWy-2 (fK=0.71) (comparable fK, different starting clay) | sorption by K-SWy-2 relative to sorption by Ca-SWy-2 | pesticide distribution coefficient for sorption by homoionic K-SWy-2 [L/kg] | sorption across variation of K+ fractions on minerals from zero to one (relative concentration 0.1, FIG. 4) | sorption enhancement by Ca-SWy-2 derived sorbents at fK as high as 0.71 (Ca2+ replaced by K+, sorption isotherms, FIG. 2) | change in sorption when K-SWy-2 underwent exchange with CaCl2, fK from 1 to 0.81 [1]
N#Cc1c(Cl)cccc1Cl [Dichlobenil, 2,6-dichlorobenzonitrile] | increased by approximately four times | ~40 | ~10 times and 8 times | approximately 75 times higher | 580 | – | – | –
c1ccc(-c2ccccc2)cc1 [Biphenyl, 1,1′-biphenyl] | – | – | – | – | 6.4 | remained nearly constant | – | –
CN(C)C(=O)Nc1ccc(Cl)cc1 [Monuron, N′-(4-chlorophenyl)-N,N-dimethylurea] | No apparent enhancement | – | – | ~4 times higher | 27 | – | ca. 205 | reduced by about half

Source: patent US20060157667A1, “Method and compositions for controlling release of organic compositions” (Board of Trustees of Michigan State University, priority 2005, published 2006)
